According to patent publication US20230416232A1, “PYRIMIDINE COMPOUNDS, COMPOSITIONS, AND MEDICINAL APPLICATIONS THEREOF” (Blueprint Medicines Corporation, priority 2020, published 2023):

How the values were obtained:
Type in all cases: cell-based
[1] = target: EGFR (H773insNPH) expressing Ba/F3 stable cell line (Homo sapiens, UniProt P00533, DUP771-773, cells depend on it); assay: Cellular proliferation (Alamar Blue) assay, EGFR (H773insNPH) Ba/F3; settings: 72 hr, read-out: NPH IC50
In short: (§1)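 Compound treatment lasted 72 h at 37 °C across a final 10-0.0005 μM range in 3-fold steps; cell growth was measured with Alamar Blue (3 h). Ba/F3 seeded at 15,000 and A431 at 5000 cells/well.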

[2] = target: EGFR (A767_dupASV) expressing Ba/F3 stable cell line (Homo sapiens, UniProt P00533, DUP767-769, cells depend on it); assay: Cellular proliferation (Alamar Blue) assay, EGFR (A767_dupASV) Ba/F3; settings: 72 hr, read-out: A767 IC50
In short: as §1

A431 cells = assay: Cellular proliferation (Alamar Blue) assay, A431 cells; settings: Homo sapiens, A-431, 72 h, A431 cells; 72 hr; Alamar Blue; read-out: A431 IC50
In short: as §1

[3] = target: EGFR(D770_N771insSVD) expressing Ba/F3 stable cell line (Homo sapiens, UniProt P00533, DUP768-770, cells depend on it); assay: Cellular proliferation (Alamar Blue) assay, EGFR(D770_N771insSVD) Ba/F3; settings: 72 hr, read-out: D770 IC50
In short: as §1

[4] = target: HER2 (A775_G776insYVMA) expressing Ba/F3 stable cell line (Homo sapiens, UniProt P04626, DUP772-775, cells depend on it); assay: Cellular proliferation (Alamar Blue) assay, HER2 (A775_G776insYVMA) Ba/F3; settings: HER2 (A775_G776insYVMA) Ba/F3 cells; 72 hr; Alamar Blue; read-out: YVMA IC50
In short: as §1

Chain of HER2 (A775_G776insYVMA) expressing Ba/F3 stable cell line (P04626 with tags, fused parts or gaps DUP772-775): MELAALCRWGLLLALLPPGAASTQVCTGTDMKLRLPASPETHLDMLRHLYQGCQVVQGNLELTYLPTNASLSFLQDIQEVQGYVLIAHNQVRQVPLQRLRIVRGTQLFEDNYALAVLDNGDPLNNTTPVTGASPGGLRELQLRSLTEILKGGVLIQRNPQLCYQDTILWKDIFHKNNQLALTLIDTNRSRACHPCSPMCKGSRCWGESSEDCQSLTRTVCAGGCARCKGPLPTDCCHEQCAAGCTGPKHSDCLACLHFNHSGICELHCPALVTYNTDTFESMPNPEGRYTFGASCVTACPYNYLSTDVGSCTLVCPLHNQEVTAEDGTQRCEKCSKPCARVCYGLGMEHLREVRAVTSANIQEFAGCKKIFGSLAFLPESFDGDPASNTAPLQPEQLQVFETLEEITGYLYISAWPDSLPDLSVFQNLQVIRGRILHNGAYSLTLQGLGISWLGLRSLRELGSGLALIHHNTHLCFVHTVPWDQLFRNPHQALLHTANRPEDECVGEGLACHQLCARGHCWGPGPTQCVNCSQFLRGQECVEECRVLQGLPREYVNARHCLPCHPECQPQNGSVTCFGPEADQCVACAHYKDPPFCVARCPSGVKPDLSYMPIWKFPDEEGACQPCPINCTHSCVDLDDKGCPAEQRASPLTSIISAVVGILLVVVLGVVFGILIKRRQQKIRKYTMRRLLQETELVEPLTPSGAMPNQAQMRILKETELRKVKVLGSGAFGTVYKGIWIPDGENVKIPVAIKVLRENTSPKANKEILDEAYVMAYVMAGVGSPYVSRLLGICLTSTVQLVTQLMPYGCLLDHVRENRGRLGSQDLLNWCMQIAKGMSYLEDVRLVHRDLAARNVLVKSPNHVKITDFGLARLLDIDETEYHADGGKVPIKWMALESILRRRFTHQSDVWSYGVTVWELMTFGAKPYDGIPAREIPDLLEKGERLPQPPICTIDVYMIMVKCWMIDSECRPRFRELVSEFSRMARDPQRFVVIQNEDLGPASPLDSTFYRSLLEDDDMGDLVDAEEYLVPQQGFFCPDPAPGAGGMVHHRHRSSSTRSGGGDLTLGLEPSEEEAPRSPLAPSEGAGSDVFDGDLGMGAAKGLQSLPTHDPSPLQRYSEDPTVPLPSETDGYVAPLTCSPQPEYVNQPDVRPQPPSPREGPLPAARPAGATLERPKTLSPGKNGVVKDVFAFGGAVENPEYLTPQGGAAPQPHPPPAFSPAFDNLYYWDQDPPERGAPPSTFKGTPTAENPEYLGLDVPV
Chain of EGFR(D770_N771insSVD) expressing Ba/F3 stable cell line (P00533 with tags, fused parts or gaps DUP768-770): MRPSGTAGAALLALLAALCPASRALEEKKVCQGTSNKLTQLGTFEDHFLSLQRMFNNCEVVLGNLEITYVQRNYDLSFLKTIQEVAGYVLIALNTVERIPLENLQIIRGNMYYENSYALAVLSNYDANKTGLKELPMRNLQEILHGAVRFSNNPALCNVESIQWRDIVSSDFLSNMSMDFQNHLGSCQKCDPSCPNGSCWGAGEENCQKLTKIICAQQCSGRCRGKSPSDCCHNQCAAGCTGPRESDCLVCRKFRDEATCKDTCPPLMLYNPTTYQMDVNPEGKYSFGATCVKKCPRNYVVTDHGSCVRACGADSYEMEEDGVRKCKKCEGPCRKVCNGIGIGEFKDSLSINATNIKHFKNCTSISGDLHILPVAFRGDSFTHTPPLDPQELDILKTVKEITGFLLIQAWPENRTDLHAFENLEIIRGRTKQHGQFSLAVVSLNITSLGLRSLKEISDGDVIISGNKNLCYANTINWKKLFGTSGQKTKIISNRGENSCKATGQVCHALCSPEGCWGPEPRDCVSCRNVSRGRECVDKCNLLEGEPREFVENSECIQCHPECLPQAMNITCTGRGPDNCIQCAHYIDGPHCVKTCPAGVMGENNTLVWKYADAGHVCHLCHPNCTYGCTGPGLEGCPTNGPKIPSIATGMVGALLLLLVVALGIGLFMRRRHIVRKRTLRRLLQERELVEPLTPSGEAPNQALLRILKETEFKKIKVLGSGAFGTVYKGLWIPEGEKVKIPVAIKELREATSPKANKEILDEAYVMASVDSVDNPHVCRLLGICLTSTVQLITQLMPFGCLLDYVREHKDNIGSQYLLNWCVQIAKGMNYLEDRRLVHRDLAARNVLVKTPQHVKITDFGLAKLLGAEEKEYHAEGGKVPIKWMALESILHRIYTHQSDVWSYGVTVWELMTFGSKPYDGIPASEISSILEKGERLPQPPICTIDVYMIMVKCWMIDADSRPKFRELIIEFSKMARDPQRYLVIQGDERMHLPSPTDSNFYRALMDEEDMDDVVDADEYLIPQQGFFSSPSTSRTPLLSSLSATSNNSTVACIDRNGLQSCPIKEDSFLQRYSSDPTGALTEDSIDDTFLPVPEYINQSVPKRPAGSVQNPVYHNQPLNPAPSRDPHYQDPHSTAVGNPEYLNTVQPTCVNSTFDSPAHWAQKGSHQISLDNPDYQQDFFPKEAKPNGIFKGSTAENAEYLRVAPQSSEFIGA
Chain of EGFR (H773insNPH) expressing Ba/F3 stable cell line (P00533 with tags, fused parts or gaps DUP771-773): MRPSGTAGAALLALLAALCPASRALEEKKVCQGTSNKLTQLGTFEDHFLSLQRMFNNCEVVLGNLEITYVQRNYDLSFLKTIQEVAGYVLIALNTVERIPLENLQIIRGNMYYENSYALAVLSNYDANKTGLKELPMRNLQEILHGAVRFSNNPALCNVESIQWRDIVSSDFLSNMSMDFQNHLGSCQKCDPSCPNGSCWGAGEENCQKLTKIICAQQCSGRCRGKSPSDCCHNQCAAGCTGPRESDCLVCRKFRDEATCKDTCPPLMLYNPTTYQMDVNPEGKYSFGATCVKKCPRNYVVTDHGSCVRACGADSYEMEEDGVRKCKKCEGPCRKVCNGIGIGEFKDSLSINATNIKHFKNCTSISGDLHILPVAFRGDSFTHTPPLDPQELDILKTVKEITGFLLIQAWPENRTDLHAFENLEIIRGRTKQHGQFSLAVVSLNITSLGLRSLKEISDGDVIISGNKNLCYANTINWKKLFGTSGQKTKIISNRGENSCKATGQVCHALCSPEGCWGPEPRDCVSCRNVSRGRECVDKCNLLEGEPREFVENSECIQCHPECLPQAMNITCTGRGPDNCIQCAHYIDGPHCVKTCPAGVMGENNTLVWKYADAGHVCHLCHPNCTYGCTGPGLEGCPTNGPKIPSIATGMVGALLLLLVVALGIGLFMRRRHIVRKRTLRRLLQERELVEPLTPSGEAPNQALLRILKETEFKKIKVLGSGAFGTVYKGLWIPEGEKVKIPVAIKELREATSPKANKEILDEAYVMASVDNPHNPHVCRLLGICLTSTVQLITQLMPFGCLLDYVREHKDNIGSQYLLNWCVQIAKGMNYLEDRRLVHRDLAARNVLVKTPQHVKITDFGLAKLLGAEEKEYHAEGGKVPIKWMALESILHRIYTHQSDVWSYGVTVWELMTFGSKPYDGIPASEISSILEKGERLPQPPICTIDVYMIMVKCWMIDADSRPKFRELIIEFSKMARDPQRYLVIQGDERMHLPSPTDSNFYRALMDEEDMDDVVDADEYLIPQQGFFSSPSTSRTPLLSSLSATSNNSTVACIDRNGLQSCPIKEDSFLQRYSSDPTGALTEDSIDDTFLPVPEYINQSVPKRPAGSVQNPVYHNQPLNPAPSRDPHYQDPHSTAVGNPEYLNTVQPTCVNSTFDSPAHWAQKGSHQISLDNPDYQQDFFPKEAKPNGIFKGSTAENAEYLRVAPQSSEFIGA
Chain of EGFR (A767_dupASV) expressing Ba/F3 stable cell line (P00533 with tags, fused parts or gaps DUP767-769): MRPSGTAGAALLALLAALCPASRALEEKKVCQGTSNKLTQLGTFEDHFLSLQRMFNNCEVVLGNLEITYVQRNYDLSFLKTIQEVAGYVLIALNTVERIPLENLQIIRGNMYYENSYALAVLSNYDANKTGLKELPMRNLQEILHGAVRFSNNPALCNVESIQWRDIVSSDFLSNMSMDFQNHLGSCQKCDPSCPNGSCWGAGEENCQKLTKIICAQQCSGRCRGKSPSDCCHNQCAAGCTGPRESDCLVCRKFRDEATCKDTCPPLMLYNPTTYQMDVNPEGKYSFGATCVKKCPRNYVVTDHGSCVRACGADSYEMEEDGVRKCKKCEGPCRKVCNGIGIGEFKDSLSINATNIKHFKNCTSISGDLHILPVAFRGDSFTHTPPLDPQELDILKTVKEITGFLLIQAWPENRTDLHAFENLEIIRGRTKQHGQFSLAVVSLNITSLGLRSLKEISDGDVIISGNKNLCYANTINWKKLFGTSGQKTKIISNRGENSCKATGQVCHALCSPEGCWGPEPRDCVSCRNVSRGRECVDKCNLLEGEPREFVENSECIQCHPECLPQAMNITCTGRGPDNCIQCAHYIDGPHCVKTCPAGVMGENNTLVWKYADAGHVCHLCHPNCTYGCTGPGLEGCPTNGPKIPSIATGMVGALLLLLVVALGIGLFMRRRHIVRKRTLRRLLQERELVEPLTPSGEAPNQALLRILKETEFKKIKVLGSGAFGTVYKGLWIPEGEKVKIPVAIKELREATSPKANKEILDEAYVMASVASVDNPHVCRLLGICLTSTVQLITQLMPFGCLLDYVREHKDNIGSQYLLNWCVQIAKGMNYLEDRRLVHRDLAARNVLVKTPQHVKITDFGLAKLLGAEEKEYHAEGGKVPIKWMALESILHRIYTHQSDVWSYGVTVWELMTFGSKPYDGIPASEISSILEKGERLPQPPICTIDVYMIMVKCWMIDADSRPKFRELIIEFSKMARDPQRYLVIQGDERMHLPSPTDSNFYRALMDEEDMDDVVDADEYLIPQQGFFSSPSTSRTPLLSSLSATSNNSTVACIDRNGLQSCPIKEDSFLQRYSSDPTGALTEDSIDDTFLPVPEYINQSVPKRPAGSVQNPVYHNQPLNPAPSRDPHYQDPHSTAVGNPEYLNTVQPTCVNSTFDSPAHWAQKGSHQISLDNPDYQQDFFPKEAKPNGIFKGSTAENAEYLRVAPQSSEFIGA

| Structure (SMILES) | GI50 [1] | GI50 [2] | IC50 (A431 cells) | GI50 [3] | GI50 [4] |
| --- | --- | --- | --- | --- | --- |
| C=CC(=O)Nc1ccc(F)c(Nc2nc(Nc3cnn(C)c3)ncc2-c2ccc(N3CCCC3)c(F)c2)c1 [Compound 77, N-(4-fluoro-3-((5-(3-fluoro-4-(pyrrolidin-1-yl)phenyl)-2-((1-methyl-1H-pyrazol-4-yl)amino)pyrimidin-4-yl)amino)phenyl)acrylamide] | 0.353 µM | 0.113 µM | 0.297 µM | 0.34 µM | 0.584 µM |
| C=CC(=O)Nc1ccc(F)c(Nc2nc(Nc3cnn(C)c3)ncc2-c2ccc(N3CCCCC3)c(F)c2)c1 [Compound 78, N-(4-fluoro-3-((5-(3-fluoro-4-(piperidin-1-yl)phenyl)-2-((1-methyl-1H-pyrazol-4-yl)amino)pyrimidin-4-yl)amino)phenyl)acrylamide] | 0.144 µM | 0.059 µM | 0.102 µM | 0.111 µM | 0.286 µM |
| C=CC(=O)Nc1ccc(F)c(Nc2nc(Nc3cnn(C)c3)ncc2-c2ccc(Br)c(Cl)c2)c1 [Compound 88, N-(3-((5-(4-bromo-3-chlorophenyl)-2-((1-methyl-1H-pyrazol-4-yl)amino)pyrimidin-4-yl)amino)-4-fluorophenyl)acrylamide] | 0.057 µM | 0.087 µM | 0.28 µM | 0.066 µM | 0.118 µM |
| C=CC(=O)Nc1ccc(F)c(Nc2nc(Nc3cnn(CCN(C)C)c3)ncc2-c2ccc(Br)c(Cl)c2)c1 [Compound 89, N-(3-((5-(4-bromo-3-chlorophenyl)-2-((1-(2-(dimethylamino)ethyl)-1H-pyrazol-4-yl)amino)pyrimidin-4-yl)amino)-4-fluorophenyl)acrylamide] | 0.056 µM | 0.108 µM | 0.343 µM | 0.102 µM | 0.123 µM |
| C=CC(=O)Nc1ccc(F)c(Nc2nc(Nc3cnn(C)c3)ncc2-c2ccc(Cl)c(Br)c2)c1 [Compound 90, N-(3-((5-(3-bromo-4-chlorophenyl)-2-((1-methyl-1H-pyrazol-4-yl)amino)pyrimidin-4-yl)amino)-4-fluorophenyl)acrylamide] | 0.156 µM | 0.122 µM | 0.185 µM | 0.1 µM | 0.164 µM |

Results, then the molecule that gave them:

| GI50 [1] | GI50 [2] | IC50 (A431 cells) | GI50 [3] | GI50 [4] | Structure (SMILES) |
| --- | --- | --- | --- | --- | --- |
| 0.054 µM | 0.102 µM | 0.045 µM | 0.074 µM | 0.113 µM | C=CC(=O)Nc1ccc(F)c(Nc2nc(Nc3cn(C)nc3Cl)ncc2-c2ccc(Br)c(F)c2)c1 [Compound 92, N-(3-((5-(4-bromo-3-fluorophenyl)-2-((3-chloro-1-methyl-1H-pyrazol-4-yl)amino)pyrimidin-4-yl)amino)-4-fluorophenyl)acrylamide] |
| 0.096 µM | 0.028 µM | 0.037 µM | 0.025 µM | 0.056 µM | C=CC(=O)Nc1ccc(F)c(Nc2nc(Nc3cnn(CCO)c3)ncc2-c2ccc(Br)c(F)c2)c1 [Compound 96, N-(3-((5-(4-bromo-3-fluorophenyl)-2-((1-(2-hydroxyethyl)-1H-pyrazol-4-yl)amino)pyrimidin-4-yl)amino)-4-fluorophenyl)acrylamide] |
| 0.153 µM | 0.104 µM | 0.99 µM | 0.036 µM | 0.252 µM | C=CC(=O)Nc1ccc(F)c(Oc2nc(Nc3cnn(C)c3)ncc2-c2ccc(Cl)c(F)c2)c1 [Compound 98, N-(3-{[5-(4-chloro-3-fluorophenyl)-2-[(1-methyl-1H-pyrazol-4-yl)amino]pyrimidin-4-yl]oxy}-4-fluorophenyl) prop-2-enamide] |
